Values joined by “and” are separate entries in the source; they are usually repeats but may differ in a detail not shown here. Equal values may be shown once. Toxic doses and inconclusive results are not listed.
System: P388 leukemia ip, CD2F1 mice, survival T/C
Experiment: NCI In Vivo Anticancer Drug Screen. Data for tumor model P388 Leukemia (intraperitoneal) in CD2F1 (CDF1) mice
Conditions: endpoint: median survival time, higher = longer survival
Method in brief: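 Mice carrying the transplanted tumor received test compound or vehicle. Survival was recorded in each group, and the value is the treated-group measurement divided by that of the vehicle-treated control group.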

[1] = dose: 50.0 mg/kg/injection, schedule: Q01DX005 (ip), vehicle: saline with Tween-80
[2] = dose: 100.0 mg/kg/injection, schedule: Q01DX005 (ip), vehicle: saline with Tween-80
[3] = dose: 200.0 mg/kg/injection, schedule: Q01DX005 (ip), vehicle: saline with Tween-80
[4] = dose: 60.0 mg/kg/injection, schedule: Q01DX005 (ip), vehicle: saline with Tween-80
[5] = dose: 120.0 mg/kg/injection, schedule: Q01DX005 (ip), vehicle: saline with Tween-80
[6] = dose: 240.0 mg/kg/injection, schedule: Q01DX005 (ip), vehicle: saline with Tween-80
[7] = dose: 200.0 mg/kg/injection, schedule: Q04DX003 (ip), vehicle: saline with Tween-80
[8] = dose: 100.0 mg/kg/injection, schedule: Q01DX009 (ip), vehicle: saline with Tween-80
[9] = dose: 200.0 mg/kg/injection, schedule: Q01DX009 (ip), vehicle: saline with Tween-80
[10] = dose: 400.0 mg/kg/injection, schedule: Q01DX009 (ip), vehicle: saline with Tween-80

In the case of `CN=C(N)NN=C(c1ccc(C)cc1)c1ccc(C)cc1`, the T/C (dose: 12.5 mg/kg/injection, schedule: Q04DX002 (ip), vehicle: saline with Tween-80) is reported as 91 % of control, the T/C (dose: 25.0 mg/kg/injection, schedule: Q04DX002 (ip), vehicle: saline with Tween-80) is reported as 104 % of control and the T/C (dose: 100.0 mg/kg/injection, schedule: Q04DX002 (ip), vehicle: saline with Tween-80) is reported as 96 % of control. For the same molecule, the T/C (dose: 200.0 mg/kg/injection, schedule: Q04DX002 (ip), vehicle: saline with Tween-80) was 100 % of control.
For `O=[N+]([O-])c1ccc(NC(c2ccccc2)S(=O)(=O)O)cc1` (configuration not stated), the T/C (dose: 50.0 mg/kg/injection, schedule: Q01DX009 (ip), vehicle: saline) was 119 % of control, the T/C (dose: 100.0 mg/kg/injection, schedule: Q01DX009 (ip), vehicle: saline) was 109 % of control and the T/C (dose: 200.0 mg/kg/injection, schedule: Q01DX009 (ip), vehicle: saline) was 123 % of control.
For `CCOC(=O)/C=C(/C)SC1=CC(=O)C=CC1=O`, the T/C [1] was 92 % of control, the T/C [2] was 92 % of control and the T/C [3] was 100 % of control.
For `COc1cccc2c1C(=O)c1c(O)c3c(c(O)c1C2=O)CC(O)(C(C)=O)CC3OC1CC(OC(=O)c2ccc([N+](=O)[O-])cc2)C(OC(=O)c2ccc([N+](=O)[O-])cc2)C(C)O1` (configuration not stated), the T/C (dose: 3.13 mg/kg/injection, schedule: Q04DX003 (ip), vehicle: distilled water + Tween-80) was 100 % of control, the T/C (dose: 3.13 mg/kg/injection, schedule: Q04DX003 (ip), vehicle: saline with Tween-80) was 100 % of control and 101 % of control and the T/C (dose: 6.25 mg/kg/injection, schedule: Q04DX003 (ip), vehicle: distilled water + Tween-80) was 108 % of control. The T/C (dose: 6.25 mg/kg/injection, schedule: Q04DX003 (ip), vehicle: saline with Tween-80) was 104 % of control and 100 % of control, the T/C (dose: 12.5 mg/kg/injection, schedule: Q04DX003 (ip), vehicle: distilled water + Tween-80) was 101 % of control and the T/C (dose: 12.5 mg/kg/injection, schedule: Q04DX003 (ip), vehicle: saline with Tween-80) was 101 % of control and 95 % of control. For the same molecule, the T/C (dose: 25.0 mg/kg/injection, schedule: Q04DX003 (ip), vehicle: distilled water + Tween-80) was 95 % of control, the T/C (dose: 25.0 mg/kg/injection, schedule: Q04DX003 (ip), vehicle: saline with Tween-80) was 101 % of control and 100 % of control and the T/C (dose: 50.0 mg/kg/injection, schedule: Q04DX003 (ip), vehicle: distilled water + Tween-80) was 156 % of control. The T/C (dose: 50.0 mg/kg/injection, schedule: Q04DX003 (ip), vehicle: saline with Tween-80) was 95 % of control and 100 % of control.
For `CC(=O)Nc1ccc(S(=O)(=O)N/N=C/c2cc([N+](=O)[O-])cc([N+](=O)[O-])c2O)cc1`, the T/C [4] was 106 % of control, the T/C [5] was 104 % of control and the T/C [6] was 104 % of control.
`CC1(C)Cc2nc3ccccc3nc2-c2ccccc21` was tested, and the T/C [1] was 101 % of control, the T/C [2] was 98 % of control and the T/C [3] was 100 % of control.
`COc1cc(/C=N\N=C\c2cc(OC)c(OC)c(OC)c2)cc(OC)c1OC` was tested, and the T/C [7] was 100 % of control.
`CCCCCCCCCCCCCCC/C([O-])=N/[N+](C)(C)CC(C)O` (configuration not stated) was tested, and the T/C (dose: 50.0 mg/kg/injection, schedule: Q04DX003 (ip), vehicle: Klucel (hydroxypropylcellulose) (HPC)) was 99 % of control, the T/C (dose: 100.0 mg/kg/injection, schedule: Q04DX003 (ip), vehicle: Klucel (hydroxypropylcellulose) (HPC)) was 99 % of control and the T/C (dose: 200.0 mg/kg/injection, schedule: Q04DX003 (ip), vehicle: Klucel (hydroxypropylcellulose) (HPC)) was 99 % of control.
For `O=C1c2cc(I)cc(I)c2NC(O)c2cccn21` (configuration not stated), the T/C (dose: 0.1 mg/kg/injection, schedule: Q01DX005 (ip), vehicle: water) was 102 % of control, the T/C (dose: 0.2 mg/kg/injection, schedule: Q01DX005 (ip), vehicle: water) was 98 % of control and the T/C (dose: 0.4 mg/kg/injection, schedule: Q01DX005 (ip), vehicle: water) was 102 % of control. The T/C (dose: 0.8 mg/kg/injection, schedule: Q01DX005 (ip), vehicle: water) was 98 % of control, the T/C (dose: 1.6 mg/kg/injection, schedule: Q01DX005 (ip), vehicle: water) was 99 % of control and the T/C (dose: 5.0 mg/kg/injection, schedule: Q01DX005 (ip), vehicle: distilled water + Tween-80) was 94 % of control. For the same molecule, the T/C (dose: 10.0 mg/kg/injection, schedule: Q01DX005 (ip), vehicle: distilled water + Tween-80) was 95 % of control, the T/C (dose: 20.0 mg/kg/injection, schedule: Q01DX005 (ip), vehicle: distilled water + Tween-80) was 102 % of control and the T/C (dose: 40.0 mg/kg/injection, schedule: Q01DX005 (ip), vehicle: distilled water + Tween-80) was 102 % of control. For the same molecule, the T/C (dose: 80.0 mg/kg/injection, schedule: Q01DX005 (ip), vehicle: distilled water + Tween-80) was 98 % of control.
`C=CCN(CC=C)/N=N/c1nc[nH]c1C(N)=O` was tested, and the T/C (dose: 50.0 mg/kg/injection, schedule: Q01DX001 (ip), vehicle: saline with Tween-80) was 104 % of control, the T/C (dose: 100.0 mg/kg/injection, schedule: Q01DX001 (ip), vehicle: saline with Tween-80) was 90 % of control and the T/C (dose: 200.0 mg/kg/injection, schedule: Q01DX001 (ip), vehicle: saline with Tween-80) was 95 % of control.
For `COc1cccc(OC(=O)c2ccc(OC)c(C3=CC(=O)C=CC3=O)c2)c1`, the T/C (dose: 100.0 mg/kg/injection, schedule: Q01DX001 (ip), vehicle: Klucel (hydroxypropylcellulose) (HPC)) was 94 % of control, the T/C (dose: 200.0 mg/kg/injection, schedule: Q01DX001 (ip), vehicle: Klucel (hydroxypropylcellulose) (HPC)) was 93 % of control and the T/C (dose: 400.0 mg/kg/injection, schedule: Q01DX001 (ip), vehicle: Klucel (hydroxypropylcellulose) (HPC)) was 89 % of control.
`CN(C)NC(=O)c1ccc(C(=O)NN(C)C)cc1` was tested, and the T/C (dose: 50.0 mg/kg/injection, schedule: Q01DX009 (ip), vehicle: Klucel (hydroxypropylcellulose) (HPC)) was 108 % of control, the T/C (dose: 100.0 mg/kg/injection, schedule: Q01DX009 (ip), vehicle: Klucel (hydroxypropylcellulose) (HPC)) was 108 % of control and the T/C (dose: 200.0 mg/kg/injection, schedule: Q01DX009 (ip), vehicle: Klucel (hydroxypropylcellulose) (HPC)) was 113 % of control.
For `N#Cc1nnn(Cc2ccccc2)c1N`, the T/C (dose: 6.25 mg/kg/injection, schedule: Q01DX009 (ip), vehicle: saline with Tween-80) was 110 % of control, the T/C (dose: 12.5 mg/kg/injection, schedule: Q01DX009 (ip), vehicle: saline with Tween-80) was 110 % of control and the T/C (dose: 25.0 mg/kg/injection, schedule: Q01DX009 (ip), vehicle: saline with Tween-80) was 108 % of control. The T/C (dose: 50.0 mg/kg/injection, schedule: Q01DX009 (ip), vehicle: saline with Tween-80) was 98 % of control and 86 % of control.
With `CC1(O)CCC(O)CC1CC(=O)O` (configuration not stated) the T/C (dose: 50.0 mg/kg/injection, schedule: Q01DX005 (ip), vehicle: saline) was 107 % of control, the T/C (dose: 100.0 mg/kg/injection, schedule: Q01DX005 (ip), vehicle: saline) was 100 % of control and the T/C (dose: 200.0 mg/kg/injection, schedule: Q01DX005 (ip), vehicle: saline) was 105 % of control.
For `C=C1C(=O)N2CCc3c([nH]c4ccccc34)[C@H]2C[C@@H]1CO`, the T/C (dose: 50.0 mg/kg/injection, schedule: Q01DX005 (ip), vehicle: Klucel (hydroxypropylcellulose) (HPC)) was 95 % of control, the T/C (dose: 100.0 mg/kg/injection, schedule: Q01DX005 (ip), vehicle: Klucel (hydroxypropylcellulose) (HPC)) was 88 % of control and the T/C (dose: 200.0 mg/kg/injection, schedule: Q01DX005 (ip), vehicle: Klucel (hydroxypropylcellulose) (HPC)) was 96 % of control.
`CC(=O)OCC(OC(C)=O)C(OC(C)=O)C(OC(C)=O)C(C#N)OC(C)=O` (configuration not stated) was tested, and the T/C [8] was 91 % of control, the T/C [9] was 87 % of control and the T/C [10] was 91 % of control. For the same molecule, the T/C (dose: 600.0 mg/kg/injection, schedule: Q01DX009 (ip), vehicle: saline with Tween-80) was 87 % of control.
With `CCN(CC)c1cccc(OC(=O)Nc2cccc(Cl)c2Cl)c1` the T/C [4] was 100 % of control, the T/C [5] was 100 % of control and the T/C [6] was 92 % of control.
With `COc1ccc(CSC(=S)Nc2ccc(F)c(F)c2)cc1` the T/C (dose: 50.0 mg/kg/injection, schedule: Q01DX009 (ip), vehicle: suspension in saline) was 108 % of control, the T/C (dose: 100.0 mg/kg/injection, schedule: Q01DX009 (ip), vehicle: suspension in saline) was 106 % of control and the T/C (dose: 200.0 mg/kg/injection, schedule: Q01DX009 (ip), vehicle: suspension in saline) was 99 % of control.
With `O=C(Nc1ccc2c(c1)Cc1cccc(NC(=O)C(Cl)Cl)c1-2)C(Cl)Cl` the T/C [8] was 90 % of control, the T/C (dose: 100.0 mg/kg/injection, schedule: Q04DX003 (ip), vehicle: saline with Tween-80) was 91 % of control and the T/C [9] was 95 % of control. The T/C [7] was 91 % of control, the T/C [10] was 100 % of control and the T/C (dose: 400.0 mg/kg/injection, schedule: Q04DX003 (ip), vehicle: saline with Tween-80) was 87 % of control.
With `O=C1C[C@@H]2OCC=C3C[N+]4([O-])CC[C@]56c7ccccc7N1[C@H]5[C@H]2[C@H]3C[C@@H]64` (some centres not stated) the T/C (dose: 12.5 mg/kg/injection, schedule: Q01DX005 (ip), vehicle: saline) was 95 % of control and the T/C (dose: 25.0 mg/kg/injection, schedule: Q01DX005 (ip), vehicle: saline) was 88 % of control.

— PubChem BioAssay AID330 (DTP/NCI, 2004)
